Experimental data: patent publication US8992996B2, “Cosmetic” (Restorsea, LLC, priority 2012, dated 2015)

System: follicles (microcomedones)
Design: species or system human
Conditions: in vivo
Method: A study is conducted to determine the comedogenic potential of test materials in the form of day cream and eye cream with formulations disclosed above by assessing whether the test materials elicited microcomedones, after four weeks of repeated application under occlusive patch conditions, relative to a negative control (undosed patch). Acetylated Lanolin Alcohol served as a positive control material in order to validate the study. The tests are conducted during a 4 week study period. A total of 15 subjects, ranging in age from 22 to 45 years, are selected for the study. All 15 participants completed the study.

Substance: Acetylated Lanolin Alcohol
- average ratio of microcomedones per follicle: 6%
- ratio of microcomedones to follicles compared with negative control (statistics): significantly greater ratio than the negative control
